Laboratory results published in patent US20230416801A1, “ANTIMICROBIC SUSCEPTIBILITY TESTING USING RECURRENT NEURAL NETWORKS” (Beckman Coulter, Inc., priority 2020, published 2023).

What was measured:
[1] = test system: Pseudomonas aeruginosa; test: Growth/no growth determinations made at 4, 5 and 6 hours by trained recurrent neural network (24 GRU) model from test-well organism counts; assay type: cell-based; conditions: for 4 Hour Call: model output 0-1 at 4 hours; for 5 Hour Call: model output 0-1 at 5 hours; for 6 Hour Call: model output 0-1 at 6 hours
Excerpt: FIG. 8 provides an illustration of how data that can be used in an optimized AST method 101 can be captured from a test well. Test well 20 is embodied by a “384” style test well, having a clear viewing bottom. The volume of inoculum in test well 20 may be set to 20 microliters to reduce the amount of materials such as bulk diluents required by AST method 101 and/or minimize light artifacts and provide sampling of a consistent number of microbes from the 1:250 dilution of the 0.5 MacFarland inoculum. Decreasing the volume of inoculum in test well 20 generally increases the light artifacts. In some instances, capturing a single vertical plane 103 at 20× objective whereby AST camera 35 is set at 0.33 microns/pixel may be sufficient for sampling the inoculum and ensuring that each individual microbe is recognizable. However, these parameters are configurable and may change as desired by the user or the underlying needs of the system. Capturing three focal sites spaced about 5 microns apart within single vertical plane 103 may also provide a sufficient number of microbes in the sample to count for use in optimized AST method 101. These three focal sites are labeled site 105, site 107, and site 109 in FIG. 8. In an exemplary version of optimized AST method 101, each focal site is approximately 700×700 microns within single vertical plane 103, rather than capturing three sites in three different vertical planes. AST camera 35, optics system 9, and computer 49 are configured to capture an image of each focal site in consecutive time periods, manipulate each of these images, and thereafter use the data derived from these manipulated images to make a MIC determination.
Once data extraction step 117 derives the desired information from segmented image 143, image analysis cycle 102 terminates. Optimized AST method 101 iteratively performs image analysis cycle 102 at set time intervals to determine how the microbes in each test well 20 are changing and reacting to the particular antimicrobic dilution pairing. Further, optimized AST method 101 iteratively performs image analysis cycle 102 on each test well 20 associated with the microbes to determine how the microbes are reacting to each concentration of the antimicrobic dilution. For example, presume the microbes being tested are E. coli bacteria and three test wells 20 are being tested, with each test well 20 having a 20-microliter solution therein. The first test well 20 may contain an antimicrobic dilution of 1 microgram per milliliter (μg/ml), the second test well 20 may contain an antimicrobic dilution of 2 μg/ml, and the third test well 20 may contain an antimicrobic dilution of 4 μg/ml. Optimized AST method 101 performs image analysis cycle 102 on each of the three test wells at each set time interval to determine (a) how each antimicrobic dilution is affecting the microbes; and (b) how each antimicrobic dilution is performing relative to the other antimicrobic dilutions. If the data indicates the 1 μg/ml antimicrobic dilution is as effective as the 2 and 4 μg/ml antimicrobic dilutions at neutralizing the microbes, the 1 μg/ml antimicrobic dilution is the MIC.
In step 163, the MIC is determined. The determination is based on the data collected during each iteration of image analysis cycle 102 for all of the antimicrobic dilutions for a microbial sample as well as for a control well where no antimicrobial agent was present. As described in the following section, this determination may involve processing the collected data with a machine learning model that had previously been trained to make determinations of whether an antimicrobial dilution in a test well would inhibit growth and then determining the MIC based on the test well with the lowest concentration where the machine learning model made a determination that growth would be inhibited. […]

[2] = test system: Pseudomonas aeruginosa; test: Target growth or no growth label determined after 16 hours; assay type: cell-based; design: key: a value of 1 could be interpreted as a determination that growth would not be inhibited; a value of 0 could be interpreted as a determination that growth would be inhibited; conditions: growth label after 16 hours
Excerpt: As an illustration of how these types of training approaches could be applied in practice, consider tables 5-12, below. In those tables, tables 5-9 provides GRU kernel weights, GRU recurrent weights, GRU bias weights, dense kernel weights, and a dense bias weight for a model implemented using the Keras API (an open source project governed by the Keras Special Interest Group and available at https://keras.io) and Tensorflow backend (an open source machine learning platform developed by Google, Inc. and available at https://www.tensorflow.org/) comprising a network cluster with 24 GRUs trained to make MIC determinations at 4, 5 and 6 hours based on training data for 56 microorganism strains when combined with various antimicrobials and the various combinations were labeled with growth or no growth information determined after 16 hours. In particular, table 5 provides a 1×72 array, in which the first 24 values would be mapped to Wz, the second 24 values would be mapped to Wr and the third 24 values would be mapped to Wh in an embodiment following FIG. 19. Table 6 provides a 72×24 array, in which the first 24×24 array (i.e., the first 24 bracketed sets of values) would be mapped to Uz, the next 24×24 array would be mapped to Ur and the third 24×24 array would be mapped to Uh in an embodiment following FIG. 19. Table 7 provides a 1×72 array, in which the first 24 values would be mapped to bz, the second 24 values would be mapped to br and the third 24 values would be mapped to bh in an embodiment following FIG. 19. Table 8 provides a 1×1344 array of values which would be multiplied by the output of the combination function 1806 in the dense layer 1807. Table 9 provides a bias value which would be added to the output of the dense layer 1807 before it was provided to the activation function 1808. Table 10 provides growth/no growth determinations made at 4, 5 and 6 hours by a system trained as described above for Pseudomonas aeruginosa and the drug Ceftazidime. Tables 11-12 provide microorganisms and antimicrobials included in the training data described above and for which the model was confirmed to be effective.

`CC(C)(O/N=C(\C(=O)N[C@@H]1C(=O)N2C(C(=O)[O-])=C(C[n+]3ccccc3)CS[C@H]12)c1csc(N)n1)C(=O)O` [Ceftazidime] was tested, and the “4 Hour Call” value ([1]; Dilution 0.03) was 1, the “5 Hour Call” value ([1]; Dilution 0.03) was 1 and the “6 Hour Call” value ([1]; Dilution 0.03) was 1. The “4 Hour Call” value ([1]; Dilution 0.06) was 1, the “5 Hour Call” value ([1]; Dilution 0.06) was 1 and the “6 Hour Call” value ([1]; Dilution 0.06) was 1. The “4 Hour Call” value ([1]; Dilution 0.12) was 1, the “5 Hour Call” value ([1]; Dilution 0.12) was 1 and the “6 Hour Call” value ([1]; Dilution 0.12) was 1. The “4 Hour Call” value ([1]; Dilution 0.25) was 1, the “5 Hour Call” value ([1]; Dilution 0.25) was 1 and the “6 Hour Call” value ([1]; Dilution 0.25) was 1. The “4 Hour Call” value ([1]; Dilution 0.5) was 1, the “5 Hour Call” value ([1]; Dilution 0.5) was 1 and the “6 Hour Call” value ([1]; Dilution 0.5) was 1. For the same molecule, the “4 Hour Call” value ([1]; Dilution 1) was 0.2105, the “5 Hour Call” value ([1]; Dilution 1) was 0.9399 and the “6 Hour Call” value ([1]; Dilution 1) was 0.9518. For the same molecule, the “4 Hour Call” value ([1]; Dilution 2) was 0.003836, the “5 Hour Call” value ([1]; Dilution 2) was 4.89E−05 and the “6 Hour Call” value ([1]; Dilution 2) was 3.77E−06. For the same molecule, the “4 Hour Call” value ([1]; Dilution 4) was 0.002258, the “5 Hour Call” value ([1]; Dilution 4) was 7.26E−06 and the “6 Hour Call” value ([1]; Dilution 4) was 2.27E−07. For the same molecule, the “4 Hour Call” value ([1]; Dilution 8) was 0.0001531, the “5 Hour Call” value ([1]; Dilution 8) was 0.0005926 and the “6 Hour Call” value ([1]; Dilution 8) was 0.000432. The “4 Hour Call” value ([1]; Dilution 16) was 0.003935, the “5 Hour Call” value ([1]; Dilution 16) was 0.001447 and the “6 Hour Call” value ([1]; Dilution 16) was 2.32E−06. The “4 Hour Call” value ([1]; Dilution 32) was 0.009609, the “5 Hour Call” value ([1]; Dilution 32) was 5.69E−05 and the “6 Hour Call” value ([1]; Dilution 32) was 1.23E−06. For the same molecule, the “4 Hour Call” value ([1]; Dilution 64) was 0.001147, the “5 Hour Call” value ([1]; Dilution 64) was 1.21E−05 and the “6 Hour Call” value ([1]; Dilution 64) was 1.64E−06. It also gave a Target ([2]; Dilution 0.03) of 1, a Target ([2]; Dilution 0.06) of 1 and a Target ([2]; Dilution 0.12) of 1. The Target ([2]; Dilution 0.25) was 1, the Target ([2]; Dilution 0.5) was 1 and the Target ([2]; Dilution 1) was 1. It also gave a Target ([2]; Dilution 2) of 0, a Target ([2]; Dilution 4) of 0 and a Target ([2]; Dilution 8) of 0. For the same molecule, the Target ([2]; Dilution 16) was 0, the Target ([2]; Dilution 32) was 0 and the Target ([2]; Dilution 64) was 0.
